Assay results as given in patent US10954269B2, “Anti-inflammatory tripeptides” (Dr. August Wolff Gmbh & Co. KG Arzneimittel, priority 2013, dated 2021).
[ ]: non-standard residue; d: D form. Aib = CC(C)(N)C(=O)O

Legend:
primary human T cells = assay: Gene expression of pro-inflammatory cytokines (RT-qPCR) in primary human T cells; assay type: cell-based; conditions: RT-qPCR
From the text: (§1) Cells were activated with PMA/Ionomycin and treated with PBS, α-MSH, K(D)PT and Examples 3, 8 and 9, respectively, at a concentration of 10^−9 M. Values are normalized to β-actin and are shown relative to the gene expression in PBS-stimulated cells.
(§2) Primary T-cells were isolated from peripheral blood from healthy volunteers and from secondary lymphatic organs from naïve C57BL/6 mice, respectively. The cells were stimulated with phorbol-12-myristate-13-acetate (PMA)/Ionomycin and interferon-gamma (IFN-γ), respectively, for 48 h to activate the cells. The activated cells release pro-inflammatory cytokines. In parallel a human (HaCaT) keratinocyte cell line was activated with PMA/Ionomycin and IFN-γ, respectively, too. […] At the same time release of anti-inflammatory IL-10 was inhibited. Two days after addition of PMA/Ionomycin and IFN-γ, respectively, the induction of IL-1 secretion was determined in the supernatant for proving that the cells are activated. […] The anti-inflammatory properties of the tripeptides were determined 48 h and 72 h following stimulation. A 13-plex-system based FACS analysis was used for showing the reduced secretion of pro-inflammatory cytokines in the supernatant. Data for IL-1, IL-2, IL-6, IL-12p70 IL-17, IFN-γ and TNF-α are considered to be most relevant. Thus, analysis of the anti-inflammatory properties of the tripeptides is preferably based on the results obtained for these analytes. […] Using this method the gene expression of pro-inflammatory markers like IL-6, IL-17, IFN-γ and TNF-α was determined.
(§3) In a third experiment murine and human T cells and HaCaT cells were stimulated with PMA/Ionomycin and treated with Examples 14, 15, 16 and 17 at 10^−7 M, 10^−9 M and 10^−11 M. Cytokine concentrations (IFN-γ, IL-17 and IL-10 for T cells and IFN-γ for HaCat) were assessed in the supernatants using the Luminex technology. Expression of genes coding for Il-1β, IL-6 and TNF-α was determined. […] Moreover, concentrations of pro-inflammatory cytokines IFN-γ and IL-17 was reduced in the supernatants whereas the concentration of anti-inflammatory cytokine IL-10 was increased.

C57BL/6 mice = assay: DSS-induced colitis in mice; assay type: in vivo; conditions: i.p.
Description: Colitis is induced by treatment of C57BL/6 mice with 2.5% dextran sulfate (DSS) in the drinking water for 7 days. Mice are treated with the test item. Weight is monitored daily. At day 8 mice are scarified. A haemocult test is performed. The size of the colon is measured. Colitis is determined using a scoring system in H&E stains. mRNA expression in colon samples is analyzed by RT-qPCR.

primary murine T cells = assay: Gene expression of pro-inflammatory cytokines (RT-qPCR) in primary murine T cells; assay type: cell-based, C57BL/6 mice; conditions: RT-qPCR
From the text: as §1, §2, §3

[1] = system: human keratinocytes (HaCaT); assay: Gene expression of pro-inflammatory cytokines (RT-qPCR) in human keratinocytes (HaCaT); assay type: cell-based; conditions: HaCaT keratinocytes; RT-qPCR
From the text: as §1, §2, §3

H-Phe-Pro-[Aib]-OH [Example 13]
mRNA expression of IL-6, IL-17, IFN-γ and TNF-α (primary human T cells): reduced expression
colon size (C57BL/6 mice): partly normalized
disease in histology (C57BL/6 mice): amelioration
mRNA expression of LY-6G, MPO, IFN-γ, IL-6 and TNF-α (colon) (C57BL/6 mice; compared to vehicle control): reduced
weight loss (C57BL/6 mice; compared to vehicle control): decreased
mRNA expression of IL-6, IL-17, IFN-γ and TNF-α (primary murine T cells): reduced expression
gene expression of pro-inflammatory cytokines [1]: reduced expression
